# Measured values reported in US10604554B2, “Double-acylated GLP-1 derivatives” (Novo Nordisk A/S, priority 2012, dated 2020).
# Tests used:
# [1] = Pharmacokinetic (PK) study in minipig; details: male, Göttingen, in vivo, iv
# Method: The purpose of this study is to determine the protraction in vivo of the GLP-1 derivatives after i.v. administration to minipigs, i.e. the prolongation of their time of action. This is done in a pharmacokinetic (PK) study, where the terminal half-life of the derivative in question is determined. By terminal half-life is generally meant the period of time it takes to halve a certain plasma concentration, measured after the initial distribution phase.
# Study A: Male Göttingen minipigs were obtained from Ellegaard Göttingen Minipigs (Dalmose, Denmark) approximately 7-14 months of age and weighing from approximately 16-35 kg were used in the studies. The minipigs were housed individually and fed restrictedly once or twice daily with SDS minipig diet (Special Diets Services, Essex, UK). After at least 2 weeks of acclimatisation two permanent central venous catheters were implanted in vena cava caudalis or cranialis in each animal. The animals were allowed 1 week recovery after the surgery, and were then used for repeated pharmacokinetic studies with a suitable wash-out period between successive GLP-1 derivative dosings.
# The animals were fasted for approximately 18 h before dosing and from 0 to 4 h after dosing, but had ad libitum access to water during the whole period.
# The GLP-1 derivatives were dissolved in 50 mM sodium phosphate, 145 mM sodium chloride, 0.05% tween 80, pH 7.4 to a concentration of usually from 20-60 nmol/ml. […] Blood samples (for example 0.8 ml) were collected in EDTA buffer (8 mM) and then centrifuged at 4° C. and 1942 G for 10 minutes.
# Study B: Male Göttingen minipigs were obtained from Ellegaard Göttingen Minipigs (Dalmose, Denmark) approximately 5 months of age and weighing from approximately 9 kg were used in the studies. The minipigs were housed in pens with straw as bedding, six together in each pen and fed restrictedly once or twice daily with Altromin 9023 minipig diet (Chr. Petersen A/S, DK-4100 Ringsted) or Standard SMP(E) minipig diet (Special Diet Services (SDS), UK). The pigs were used for repeated pharmacokinetic studies with a suitable wash-out period between successive GLP-1 derivative dosings.
# The GLP-1 derivatives were dissolved in 50 mM sodium phosphate, 145 mM sodium chloride, 0.05% tween 80, pH 7.4 to a concentration of usually from 20-60 nmol/ml. Intravenous injections (the volume corresponding to usually 2 nmol/kg, for example 0.1 ml/kg) of the compounds were given as intravenous injections via a Venflon inserted in an ear vein, while they are placed unanaesthetised in a sling. The dose volume was 0.1 ml/kg, and blood was sampled at predefined time points for up till 17 days post dosing (samples was taken with syringe from a jugular vein).
# Individual plasma concentration-time profiles were analyzed by a non-compartmental model in Phoenix WinNonLin ver. […] (Pharsight Inc., Mountain View, Calif., USA), and the resulting terminal half-lives (harmonic mean) determined.
# [2] = system: Landrace Yorkshire Duroc (LYD) pigs; assay: Pharmacodynamic (PD) study in pigs, food intake; format: in vivo, pig; details: single s.c. dose 3.0 nmol/kg; for PD in pig, food intake (% of vehicle) for hours 0-24: 0-24 h; for PD in pig, food intake (% of vehicle) for hours 24-48: 24-48 h; for reduction in food intake (in words): versus vehicle
# Method: The purpose of this experiment was to investigate the effect of a couple of Example compounds on food intake in pigs. This was done in a pharmacodynamic (PD) study as described below, in which food intake was measured from 1 to 4 days after administration of a single dose of the GLP-1 derivative, as compared to a vehicle-treated control group.
# Female Landrace Yorkshire Duroc (LYD) pigs, approximately 3 months of age, weighing approximately 30-35 kg were used (n=3-4 per group). The animals were housed in a group for approximately 1 week during acclimatisation to the animal facilities. During the experimental period the animals were placed in individual pens at least 2 days before dosing and during the entire experiment for measurement of individual food intake. The animals were fed ad libitum with pig fodder (Svinefoder Danish Top) at all times both during the acclimatisation and the experimental period. Food intake was monitored on line by logging the weight of fodder every 15 minutes. The system used was Mpigwin (Ellegaard Systems, Faaborg, Denmark).
# The phosphate buffer serves as vehicle. Animals are dosed with a single subcutaneous dose of the GLP-1 derivative or vehicle (dose volume 0.025 ml/kg) on the morning of day 1, and food intake is measured for 1 day after dosing. On the last day of each study, 1-4 days after dosing, a blood sample for measurement of plasma exposure of the GLP-1 derivative is taken from the heart in anaesthetised animals. The animals are thereafter euthanised with an intra-cardial overdose of pentobarbitone.
# Food intake is calculated as mean±SEM food intake in 24 h intervals (0-24 h, 24-48 h, and 48-72 h). In Table 6 below the food intake is indicated as percentage of the food intake of the vehicle group in the same time interval (dosage 3.0 nmol/kg).
# Statistical comparisons of the food intake in the 24 h intervals in the vehicle vs. GLP-1 derivative group are done using two-way-ANOVA repeated measures, followed by Bonferroni post-test.
# [3] = target: T1, human GLP-1 receptor (Homo sapiens, UniProt P43220); assay: In vitro potency (AlphaScreen cAMP, membranes); format: biochemical
# T1 construct: expressed in transfected cells; host or cells: BHK cells, clone FCW467-12A/KZ10-1 (parent line BHKTS13), further transfected with CRE luciferase
# T1 sequence (P43220 24-463): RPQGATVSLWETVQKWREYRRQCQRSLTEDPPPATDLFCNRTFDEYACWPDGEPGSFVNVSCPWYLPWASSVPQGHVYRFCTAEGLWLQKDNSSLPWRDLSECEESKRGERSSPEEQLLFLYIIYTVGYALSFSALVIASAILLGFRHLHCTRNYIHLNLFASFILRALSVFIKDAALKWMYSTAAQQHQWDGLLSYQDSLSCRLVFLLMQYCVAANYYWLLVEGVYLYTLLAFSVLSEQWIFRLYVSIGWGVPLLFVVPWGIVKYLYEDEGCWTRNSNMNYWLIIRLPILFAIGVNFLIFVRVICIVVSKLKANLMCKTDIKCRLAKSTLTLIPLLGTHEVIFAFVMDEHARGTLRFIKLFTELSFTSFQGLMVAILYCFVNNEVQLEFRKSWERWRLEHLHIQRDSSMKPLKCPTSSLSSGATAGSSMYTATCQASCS
# How it was run: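 AlphaScreen competition read-out (anti-cAMP acceptor beads vs biotinylated cAMP, 3 h room temperature) quantified cAMP made by human GLP-1 receptor membranes, 6 μg/well, from stably transfected BHK467-12A cells. Buffer pH 7.4 contained 1 mM ATP, 1 μM GTP, 0.5 mM IBMX and 0.1% BSA; cAMP standard curve included.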
# [4] = Pharmacokinetic (PK) study in rat; details: male, Sprague Dawley, in vivo, iv, 6 nmol/kg
Compound,half-life [1],"PD in pig, food intake (% of vehicle) for hours 0-24 [2]","PD in pig, food intake (% of vehicle) for hours 24-48 [2]",reduction in food intake (in words) [2],EC50 [3],half-life [4],"PD in pig, food intake (% of vehicle) for hours 48-72 ([2]; 48-72 h)"
"CC[C@H](C)[C@H](NC(=O)[C@H](Cc1ccccc1)NC(=O)[C@H](CCC(=O)O)NC(=O)[C@H](CCCCNC(=O)[C@@H](N)CCCCNC(=O)[C@@H](N)CCCCNC(=O)CC[C@H](NC(=O)CCCCCCCCCCCOc1ccc(C(=O)O)cc1)C(=O)O)NC(=O)[C@H](C)NC(=O)[C@H](C)NC(=O)[C@H](CCC(N)=O)NC(=O)CNC(=O)[C@H](CCC(=O)O)NC(=O)[C@H](CC(C)C)NC(=O)[C@H](Cc1ccc(O)cc1)NC(=O)[C@H](CO)NC(=O)[C@H](CO)NC(=O)[C@@H](NC(=O)[C@H](CC(=O)O)NC(=O)[C@H](CO)NC(=O)[C@@H](NC(=O)[C@H](Cc1ccccc1)NC(=O)[C@@H](NC(=O)CNC(=O)[C@H](CCC(=O)O)NC(=O)C(C)(C)NC(=O)[C@@H](N)Cc1c[nH]cn1)[C@@H](C)O)[C@@H](C)O)C(C)C)C(=O)N[C@@H](C)C(=O)N[C@@H](Cc1c[nH]c2ccccc12)C(=O)N[C@@H](CC(C)C)C(=O)N[C@H](C(=O)N[C@@H](CCCNC(=N)N)C(=O)NCC(=O)N[C@@H](CCCNC(=N)N)C(=O)N[C@@H](CCCCNC(=O)[C@@H](N)CCCCNC(=O)[C@@H](N)CCCCNC(=O)CC[C@H](NC(=O)CCCCCCCCCCCOc1ccc(C(=O)O)cc1)C(=O)O)C(=O)O)C(C)C [Example 7, N^ε26-[(2S)-2-amino-6-[[(2S)-2-amino-6-[[(4S)-4-carboxy-4-[12-(4-carboxyphenoxy)dodecanoylamino]butanoyl]amino]hexanoyl]amino]hexanoyl], N^ε37-[(2S)-2-amino-6-[[(2S)-2-amino-6-[[(4S)-4-carboxy-4-[12-(4-carboxyphenoxy)dodecanoylamino]butanoyl]amino]hexanoyl]amino]hexanoyl]-[Aib^8,Arg^34,Lys^37]-GLP-1-(7-37)-peptide]",4140 min,14 % of vehicle,18 % of vehicle,very nice reduction in food intake,0.136 nM,1020 min,
"CC[C@H](C)[C@H](NC(=O)[C@H](Cc1ccccc1)NC(=O)[C@H](CCC(=O)O)NC(=O)[C@H](CCCCNC(=O)[C@@H](N)CCCCNC(=O)[C@@H](N)CCCCNC(=O)CC[C@H](NC(=O)CCCCCCCNC(=O)CCCCCCCCCOc1ccc(C(=O)O)cc1)C(=O)O)NC(=O)[C@H](C)NC(=O)[C@H](C)NC(=O)[C@H](CCC(N)=O)NC(=O)CNC(=O)[C@H](CCC(=O)O)NC(=O)[C@H](CC(C)C)NC(=O)[C@H](Cc1ccc(O)cc1)NC(=O)[C@H](CO)NC(=O)[C@H](CO)NC(=O)[C@@H](NC(=O)[C@H](CC(=O)O)NC(=O)[C@H](CO)NC(=O)[C@@H](NC(=O)[C@H](Cc1ccccc1)NC(=O)[C@@H](NC(=O)CNC(=O)[C@H](CCC(=O)O)NC(=O)C(C)(C)NC(=O)[C@@H](N)Cc1c[nH]cn1)[C@@H](C)O)[C@@H](C)O)C(C)C)C(=O)N[C@@H](C)C(=O)N[C@@H](Cc1c[nH]c2ccccc12)C(=O)N[C@@H](CC(C)C)C(=O)N[C@H](C(=O)N[C@@H](CCCNC(=N)N)C(=O)NCC(=O)N[C@@H](CCCNC(=N)N)C(=O)N[C@@H](CCCCNC(=O)[C@@H](N)CCCCNC(=O)[C@@H](N)CCCCNC(=O)CC[C@H](NC(=O)CCCCCCCNC(=O)CCCCCCCCCOc1ccc(C(=O)O)cc1)C(=O)O)C(=O)O)C(C)C [Example 26, N^ε26-[(2S)-2-amino-6-[[(2S)-2-amino-6-[[(4S)-4-carboxy-4-[8-[10-(4-carboxyphenoxy)decanoylamino]octanoylamino]butanoyl]amino]hexanoyl]amino]hexanoyl], N^ε37-[(2S)-2-amino-6-[[(2S)-2-amino-6-[[(4S)-4-carboxy-4-[8-[10-(4-carboxyphenoxy)decanoylamino]octanoylamino]butanoyl]amino]hexanoyl]amino]hexanoyl]-[Aib^8,Arg^34,Lys^37]-GLP-1-(7-37)-peptide]",780 min,10 % of vehicle,26 % of vehicle,very nice reduction in food intake,0.135 nM,960 min,52 % of vehicle
